The structures appear in SMILES notation. Entries after “also recorded” stand apart in the source; their conditions may differ.

Common to all, as to assay type: cell-based, Medicago truncatula
Assay [1] deals with IFS genes. Description: Microarray analysis of elicitor-treated cell suspension cultures: IFS transcripts. The settings on record: MeJA: 24 h after treatment. An excerpt:
(§1) The Affymetrix DNA chip contained 61,200 probe sets: 32,167 M. truncatula EST/mRNA-based and chloroplast gene-based probe sets (TIGR Gene Index version 8, January, 2005, 36,878 unique sequences); 18,733 M. truncatula IMGAG (International Medicago Genome Annotation Group) and phase 2/3 BAC prediction-based probe sets; 1,896 M. sativa EST/mRNA based probe sets; 8,305 Sinorhizobium meliloti gene prediction-based probe sets. For microarray experiments, total RNA was extracted from cell suspension cultures (Suzuki et al., 2005) using TRI Reagent (Molecular Research Center, Inc., Cincinnati, Ohio) and purified using the RNeasy® MinElute Cleanup Kit (Qiagen, Valencia, Calif.), according to the manufacturer's instructions. For all samples, 10 μg of total RNA was used for labeling reactions. Labeling, hybridization and data processing were performed according to the manufacturer's instruction (Affymetrix, Santa Clara, Calif.). For both YE and MeJA treatments, transcript profiles were examined at early (2 h) and late (24 h) time post-elicitation. For each sample point, two biological replicates were included, and the average signal intensities were used to calculate ratio of treatment to its corresponding control.
MtIOMTs 6-8 are annotated as encoding 2,7,4′-trihydroxyisoflavanone 4′-OMTs. […]

For assay [2], the system named is MtIOMT2. Description: RT-PCR analysis of elicitor-treated cell cultures: MtIOMT2. On the procedure:
(§2) Infection of M. truncatula with Phoma medicaginis was performed as described (Deavours and Dixon, 2005). RNA was extracted from plant tissues using TRI Reagent (Molecular Research Center, Inc., Cincinnati, Ohio) according to the manufacturer's instructions. For RT-PCR, 2 μg of total RNA was transcribed into cDNA using Ready-To-Go RT-PCR beads (Amersham, Piscataway, N.J.) and oligo-dT primer. Two μl of cDNA was used in each PCR reaction (50 μl total) with Ex-Taq PCR reagents (Takara Bio Inc., Shiga, Japan) and the primers used are listed in Table 1 (SEQ ID NOs:16-29). PCR conditions were 94° C., 5 min; 25-32 cycles of 94° C. for 1 min, 55° C. for 1 min, 72° C. for 1 min; followed by 72° C. for 10 min. PCR products were resolved on a 1% (w/v) TAE-agarose gel and visualized with ethidium bromide.
(§3) Differential induction of MtIOMTs in response to elicitation was also observed in M. truncatula cell cultures treated with yeast elicitor (YE) or methyl jasmonate (MeJA), which induce different global patterns of genetic re-programming (Suzuki et al., 2005). Changes in IOMT transcripts in elicited cells were inferred from microarray data generated utilizing Affymetrix Medicago genome arrays with 61K probe sets (www.affymetrix.com). […]

Assay [3] concerns MtIOMT6. Kind of assay: Microarray analysis of elicitor-treated cell suspension cultures: MtIOMT6 transcripts. The settings on record: 2 and 24 hours post-elicitation.
Description: as §1, with “control. […]” for “control.”

For assay [4], the system named is MtIOMT1. Kind of assay: Expression in elicitor-treated cell cultures: MtIOMT1 transcripts.
Description: as §1, with “control. […]” for “control.”

In assay [5] the test system is MtIOMT7. Description: Microarray analysis of elicitor-treated cell suspension cultures: MtIOMT7 transcripts. Particulars: 2 and 24 hours post-elicitation.
Description: as §1, with “control. […]” for “control.”

Assay [6] deals with MtIOMT6. Description: RT-PCR analysis of elicitor-treated cell cultures: MtIOMT6. How it is done:
as §2, §3

Assay [7] concerns MtIOMT4. Kind of assay: Microarray analysis of elicitor-treated cell suspension cultures: MtIOMT4 transcripts. Particulars: 2 and 24 hours post-elicitation.
Description: as §1, with “control. […]” for “control.”

For `CC/C=C\CC1C(=O)CCC1CC(=O)OC` (stereo not shown) [MeJA, methyl jasmonate], the “Change of IFS gene transcripts, treatment vs control” value in assay [1] is on record as “down-regulated; also recorded: consistently reduced”. Besides, the “Induction of MtIOMT2 transcripts” value in assay [2] is “strong induction”. Moreover, the “Induction of MtIOMT6 transcripts, treatment vs control” value in assay [3] is given as “massively induced; also recorded: very strongly induced”. Further, the “Induction of MtIOMT1 transcripts” value in assay [4] was “induced”. The “Induction of MtIOMT7 transcripts, treatment vs control” value in assay [5] is “massively induced; also recorded: very strongly induced”. In assay [6], the “Induction of MtIOMT6 transcripts” value was “strong induction”. Besides, the “Induction of MtIOMT4 transcripts, treatment vs control” value in assay [7] was “down-regulated”.

Values taken from patent publication US8809627B2, “Plant isoflavone and isoflavanone O-methyltransferase genes” (The Samuel Roberts Noble Foundation, Inc., priority 2006, dated 2014).
